Assay results taken from patent US12202818B2, “Compounds and methods for CD73 modulation and indications therefor” (Opna Bio SA, priority 2020, dated 2025).

Experiments:
[1] = molecular target: T1, Human CD73 (amino acid residues 27-549) (Homo sapiens, UniProt P21589); assay: CD73 enzymatic assay (luciferase-based indirect assay, CellTiter-Glo); type: biochemical; conditions: 0.4 nM CD73, 150 μM AMP, 1 hour at room temperature
T1 construct: Human CD73 (amino acid residues 27-549); His tag (N); made in house; host or cells: E. coli
T1 sequence (P21589 27-549): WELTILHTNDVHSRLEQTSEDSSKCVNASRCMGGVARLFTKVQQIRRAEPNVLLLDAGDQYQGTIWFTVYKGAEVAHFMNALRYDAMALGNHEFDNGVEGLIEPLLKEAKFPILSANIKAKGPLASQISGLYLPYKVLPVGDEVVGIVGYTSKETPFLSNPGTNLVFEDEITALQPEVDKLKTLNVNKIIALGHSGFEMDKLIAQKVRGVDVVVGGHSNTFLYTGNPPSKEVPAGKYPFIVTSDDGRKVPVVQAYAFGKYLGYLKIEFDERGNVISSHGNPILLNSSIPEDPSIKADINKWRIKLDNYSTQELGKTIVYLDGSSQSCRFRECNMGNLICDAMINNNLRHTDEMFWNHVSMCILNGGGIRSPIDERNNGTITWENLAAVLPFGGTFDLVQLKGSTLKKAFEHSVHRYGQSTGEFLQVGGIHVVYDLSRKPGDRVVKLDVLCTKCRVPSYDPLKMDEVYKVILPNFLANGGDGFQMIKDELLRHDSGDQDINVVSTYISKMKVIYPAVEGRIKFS
Method: CD73 enzymatic activity was measured in a luciferase-based indirect assay using CellTiter-Glo® system from Promega. The luciferase reaction in the presence of ATP is inhibited by AMP, a primary substrate of CD73. Addition of CD73 enzyme to the reaction converts AMP to adenosine, and release the inhibition, producing a luminescent signal. Inhibition of CD73 leads to the decrease of this luminescent signal.
Human CD73 (amino acid residues 27-549) with N-Terminal His tag was purified in E. coli. All the assay components were prepared in 50 mM HEPEs buffer (pH 7.4) with 0.01% Tween-20. The CD73 enzymatic assay was performed using 0.4 nM CD73 and 150 μM AMP. 9.5 μL of CD73 protein and 9.5 μL of AMP were added to the wells of a 384 well plate containing lpL of various concentrations of test compound or DMSO vehicle and incubated for 1 hour at room temperature. 16 wells containing CD73, AMP and 5% DMSO served as high control. 16 wells containing AMP and 5% DMSO served as low control. Enzymatic reaction was stopped and AMP level was measured indirectly by adding 5 μL of CellTiter-Glo® 2.0 reagent and 5 μL of ATP with a final concentration of 1 μM. Following incubation of the plate at room temperature for 30 minutes, luminescent signal was read on a Tecan plate reader. The percentage inhibition at individual concentrations relative to high and low controls was calculated. The data were analyzed by using nonlinear regression to generate IC50 values.

human CD73 = molecular target: T2, human CD73 (Homo sapiens, UniProt P21589); assay: Inhibitor activity against CD73 in cell based assay (CD73 expressing CHO-K1 cells); conditions: CHO-K1 cells expressing human CD73, 150 μM AMP, 4 hours of incubation; read-out: CHO-K1 CELL_VARIANT: CD73 IC50
T2 construct: expressed in transfected cells
T2 sequence (P21589 27-549): T1 sequence (P21589 27-549)
Method: Determine Inhibitor Activity Against CD73 in Cell Based Assay
CD73 expressing CHO-K1 cell clones were generated upon stable transfection of a plasmid expressing human CD73 under the control of CMV promoter. Cells were selected in Ham's F-12K (Kaighn's) media supplemented with 10% fetal bovine serum and 1 mg/ml G418 at 37° C. in a humidified incubator supplied with 5% CO2. The assays were performed as follows. Cells were seeded in a 96 well plate in 50 μL of culture media at a density of 1×10^4 per well. Compound at a maximal concentration of 5 mM was serially diluted 1:3 in DMSO for a total of 8 point titration. A 2 μL aliquot of each dilution point was added to […] culture media and 25 µL was added to each well, providing 10 μM compound at the maximum concentration point. AMP was diluted in culture media and 25 μL was added to each well with a final concentration of 150 μM. 4 wells containing 0.2% DMSO treated cells and AMP served as high controls and 4 wells containing media only with 0.2% DMSO and AMP served as low controls. After 4 hours of incubation, 20 μL of the supernatant was transferred to a 384 well plate. AMP level in supernatant was measured indirectly by adding 5 μL of CellTiter-Glo® 2.0 reagent and 5 μL of ATP with a final concentration of 1 μM. Following incubation of plate at room temperature for 30 minutes, luminescent signal was read on a Tecan plate reader. The percentage inhibition at individual concentrations relative to high and low controls was calculated. The data were analyzed by using nonlinear regression to generate ICso values.

SMILES	IC50 [1]	IC50 (human CD73)
O=C(CO)N1CCC(c2ccnc(O[C@@H]3CCN(c4cn[nH]c(=O)c4Cl)C3)c2)CC1 [P-0016, (R)-4-chloro-5-(3-((4-(1-(2-hydroxyacetyl)piperidin-4-yl)pyridin-2-yl)oxy)pyrrolidin-1-yl)pyridazin-3(2H)-one]	0.001 to 10 µM	0.001 to 10 µM
Cc1noc(C)c1-c1ccnc(O[C@@H]2CCN(c3cn[nH]c(=O)c3Br)C2)c1 [P-0066, (R)-4-bromo-5-(3-((4-(3,5-dimethylisoxazol-4-yl)pyridin-2-yl)oxy)pyrrolidin-1-yl)pyridazin-3(2H)-one]	0.001 to 10 µM	0.001 to 10 µM
Cc1noc(C)c1-c1cc(F)nc(O[C@@H]2CCN(c3cnn(CCO)c(=O)c3Cl)C2)c1 [P-0123, (R)-4-chloro-5-(3-((4-(3,5-dimethylisoxazol-4-yl)-6-fluoropyridin-2-yl)oxy)pyrrolidin-1-yl)-2-(2-hydroxyethyl)pyridazin-3(2H)-one]	0.001 to 10 µM	0.001 to 10 µM
Cc1noc(C)c1-c1ccnc(O[C@@H]2CCN(c3cn[nH]c(=O)c3C(F)(F)F)C2)c1 [P-0051, (R)-5-(3-((4-(3,5-dimethylisoxazol-4-yl)pyridin-2-yl)oxy)pyrrolidin-1-yl)-4-(trifluoromethyl)pyridazin-3(2H)-one]	0.001 to 10 µM	0.001 to 10 µM
Cc1nn(CC(=O)O)c(C)c1-c1ccnc(O[C@@H]2CCN(c3cn[nH]c(=O)c3Cl)C2)c1 [P-0045, (R)-2-(4-(2-((1-(5-chloro-6-oxo-1,6-dihydropyridazin-4-yl)pyrrolidin-3-yl)oxy)pyridin-4-yl)-3,5-dimethyl-1H-pyrazol-1-yl)acetic acid]	0.001 to 10 µM	0.001 to 10 µM
Cc1c(-c2cc(F)nc(O[C@@H]3CCN(c4cn[nH]c(=O)c4Cl)C3)c2)cnn1C [P-0194, (R)-4-chloro-5-(3-((4-(1,5-dimethyl-1H-pyrazol-4-yl)-6-fluoropyridin-2-yl)oxy)pyrrolidin-1-yl)pyridazin-3(2H)-one]	0.001 to 10 µM	0.001 to 10 µM
CCCNS(=O)(=O)c1ccc(-c2ccnc(O[C@@H]3CCN(c4cn[nH]c(=O)c4Cl)C3)c2)c(C)c1 [P-0240, (R)-4-(2-((1-(5-chloro-6-oxo-1,6-dihydropyridazin-4-yl)pyrrolidin-3-yl)oxy)pyridin-4-yl)-3-methyl-N-propylbenzenesulfonamide]	0.001 to 10 µM	0.001 to 10 µM
CC1(C)CNCCN1c1ccnc(O[C@@H]2CCN(c3cn[nH]c(=O)c3Cl)C2)c1 [P-0080, (R)-4-chloro-5-(3-((4-(2,2-dimethylpiperazin-1-yl)pyridin-2-yl)oxy)pyrrolidin-1-yl)pyridazin-3(2H)-one]	0.001 to 10 µM	10 to 100 µM
CC(C)N1CCN(c2ccnc(O[C@@H]3CCN(c4cn[nH]c(=O)c4Cl)C3)c2)CC1 [P-0003, (R)-4-chloro-5-(3-((4-(4-isopropylpiperazin-1-yl)pyridin-2-yl)oxy)pyrrolidin-1-yl)pyridazin-3(2H)-one]	0.001 to 10 µM	0.001 to 10 µM
CC1(C)CC=C(c2ccnc(O[C@@H]3CCN(c4cn[nH]c(=O)c4Cl)C3)c2)CC1 [P-0099, (R)-4-chloro-5-(3-((4-(4,4-dimethylcyclohex-1-en-1-yl)pyridin-2-yl)oxy)pyrrolidin-1-yl)pyridazin-3(2H)-one]	0.001 to 10 µM	0.001 to 10 µM
O=c1[nH]ncc(N2CC[C@@H](Oc3cc(-c4ccc(S(=O)(=O)NC5CC5)cc4F)ccn3)C2)c1Cl [P-0234, (R)-4-(2-((1-(5-chloro-6-oxo-1,6-dihydropyridazin-4-yl)pyrrolidin-3-yl)oxy)pyridin-4-yl)-N-cyclopropyl-3-fluorobenzenesulfonamide]	0.001 to 10 µM	0.001 to 10 µM
CCCNS(=O)(=O)c1cc(C)c(-c2ccnc(O[C@@H]3CCN(c4cn[nH]c(=O)c4Cl)C3)c2)c(F)c1 [P-0225, (R)-4-(2-((1-(5-chloro-6-oxo-1,6-dihydropyridazin-4-yl)pyrrolidin-3-yl)oxy)pyridin-4-yl)-3-fluoro-5-methyl-N-propylbenzenesulfonamide]	0.001 to 10 µM	0.001 to 10 µM
O=c1[nH]ncc(N2CC[C@@H](Oc3cc(-n4cccc4)ccn3)C2)c1Cl [P-0252, (R)-5-(3-((4-(1H-pyrrol-1-yl)pyridin-2-yl)oxy)pyrrolidin-1-yl)-4-chloropyridazin-3(2H)-one]	0.001 to 10 µM	0.001 to 10 µM
Cc1nn(C)c(C)c1-c1cc(O[C@H]2CN(c3cn[nH]c(=O)c3Cl)C[C@@H]2F)ncn1 [P-0147, 4-chloro-5-((3S,4S)-3-fluoro-4-((6-(1,3,5-trimethyl-1H-pyrazol-4-yl)pyrimidin-4-yl)oxy)pyrrolidin-1-yl)pyridazin-3(2H)-one]	0.001 to 10 µM	0.001 to 10 µM
Cc1nn(C(F)F)c(C)c1-c1ccnc(O[C@@H]2CCN(c3cn[nH]c(=O)c3Cl)C2)c1 [P-0170, (R)-4-chloro-5-(3-((4-(1-(difluoromethyl)-3,5-dimethyl-1H-pyrazol-4-yl)pyridin-2-yl)oxy)pyrrolidin-1-yl)pyridazin-3(2H)-one]	0.001 to 10 µM	0.001 to 10 µM
Cc1noc(C)c1-c1cc(O[C@H]2CN(c3cnn(CC(O)CO)c(=O)c3Cl)C[C@@H]2F)ncc1F (stereo partly drawn) [P-0129, 4-chloro-2-(2,3-dihydroxypropyl)-5-((3S,4S)-3-((4-(3,5-dimethylisoxazol-4-yl)-5-fluoropyridin-2-yl)oxy)-4-fluoropyrrolidin-1-yl)pyridazin-3(2H)-one]	0.001 to 10 µM	0.001 to 10 µM
Cc1nn(CC2CC(F)(F)C2)c(C)c1-c1cc(F)nc(O[C@@H]2CCN(c3cn[nH]c(=O)c3Cl)C2)c1 [P-0187, (R)-4-chloro-5-(3-((4-(1-((3,3-difluorocyclobutyl)methyl)-3,5-dimethyl-1H-pyrazol-4-yl)-6-fluoropyridin-2-yl)oxy)pyrrolidin-1-yl)pyridazin-3(2H)-one]	0.001 to 10 µM	0.001 to 10 µM
Cc1noc(C)c1-c1cc(F)nc(O[C@H]2CN(c3cnn(CCO)c(=O)c3Cl)C[C@@H]2F)c1 [P-0188, 4-chloro-5-((3S,4S)-3-((4-(3,5-dimethylisoxazol-4-yl)-6-fluoropyridin-2-yl)oxy)-4-fluoropyrrolidin-1-yl)-2-(2-hydroxyethyl)pyridazin-3(2H)-one]	0.001 to 10 µM	0.001 to 10 µM
Cc1c(-c2cccc(O[C@@H]3CCN(c4cn[nH]c(=O)c4Cl)C3)c2)cnn1C [P-0196, (R)-4-chloro-5-(3-(3-(1,5-dimethyl-1H-pyrazol-4-yl)phenoxy)pyrrolidin-1-yl)pyridazin-3(2H)-one]	0.001 to 10 µM	0.001 to 10 µM
O=c1[nH]ncc(N2CC[C@@H](Oc3cc(C4CCCCC4)ccn3)C2)c1Cl [P-0085, (R)-4-chloro-5-(3-((4-cyclohexylpyridin-2-yl)oxy)pyrrolidin-1-yl)pyridazin-3(2H)-one]	0.001 to 10 µM	0.001 to 10 µM
O=c1[nH]ncc(N2CC[C@@H](Oc3cncc(O[C@@H]4CCN(c5cn[nH]c(=O)c5Cl)C4)c3)C2)c1Cl [P-0163, 5,5′-((3R,3′R)-(pyridine-3,5-diylbis(oxy))bis(pyrrolidine-3,1-diyl))bis(4-chloropyridazin-3(2H)-one)]	0.001 to 10 µM	0.001 to 10 µM
